Data published in patent publication US10208288B2, “Differentiation of human embryonic stem cells into pancreatic endocrine cells” (Janssen Biotech, Inc., priority 2012, dated 2019).

System: cells of the human embryonic stem cell line H1 differentiated to stage 6
Experiment: Immunostaining for NKX2.2 in stage 6 cultures
Type: cell-based
Settings: 10 μM at stage 6, immunostaining; in control cultures NKX2.2+ cells distributed uniformly
Procedure: Cells of the human embryonic stem cell line H1 (hESC H1, passage 40) were seeded as single cells at 1×10^5 cells/cm^2 on MATRIGEL™ (1:30 dilution; BD Biosciences, NJ) coated dishes in mTeSR®1 media (StemCell Technologies, Vancouver, Canada) supplemented with 10 μM of Y27632. Forty-eight hours post seeding, cultures were washed in incomplete PBS (phosphate buffered saline without Mg or Ca). Cultures were differentiated into pancreatic endoderm/endocrine lineages as follows: • a) Stage 1 (Definitive Endoderm (DE)—3 days): Cells were cultured for one day in stage 1 media (see Example 1, above). Cells were then cultured for an additional day in MCDB-131 medium supplemented with 0.1% fatty acid-free BSA, 0.0012 g/ml sodium bicarbonate, 1× GlutaMax™, 4.5 mM D-Glucose, 100 ng/ml GDF8, and 0.1 μM MCX compound. […]

Compound: CCCCCCCCCCCCC/C=C/[C@@H](O)[C@@H](N)COP(=O)(O)O [S1P, sphingosine-1-phosphate]
- NKX2.2+ cells in endocrine clusters: enriched for NKX2.2+ cells
